The values below come from the supplement of paper PMC11821682.

One assay deals with Danio rerio embryo. The assay can be described thus: BMC10 any morphological effect or mortality at 120 hpf; higher = less toxic.
For the next assay, the system named is HL-60. The assay can be described thus: Cell Health Index (toxicity pseudo-probability over dose series) (index 0-1); higher = more cytotoxic / cell stress.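 Note: HL-60 cells exposed 4 h at 37 °C to ten threefold dilutions spanning 5 nM to 100 µM, multiparametric flow cytometry features scored by machine-learning classification.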

Take `CC(C)(C)C#Cc1cc(N(C(=O)[C@H]2CC[C@H](C)CC2)[C@H]2CC[C@@H](O)CC2)c(C(=O)O)s1` [Lomibuvir]: the “BMC10 any morphological effect or mortality” value in the assay on Danio rerio embryo was > 100 µM. The “Cell Health Index” value in the assay with HL-60 was determined as 0.414.
In the case of `COc1c(O)cc2c(c1O)[C@@H]1O[C@H](CO)[C@@H](O)[C@H](O)[C@H]1OC2=O` [Bergenin], the “BMC10 any morphological effect or mortality” value with Danio rerio embryo was > 100 µM. Moreover, in the assay on HL-60, the “Cell Health Index” value is 0.214.
Taken in the same sequence, the figures for `O=C(CCCCCCC(=O)Nc1ccccc1)NO` [SAHA] were > 100 µM and 0.239.
For `O=c1[nH]c(=O)n([C@H]2C[C@H](O)[C@@H](CO)O2)cc1CO` [5-Hydroxymethyl-2'-deoxyuridine], the “BMC10 any morphological effect or mortality” value in the assay with Danio rerio embryo was > 100 µM. Also, the “Cell Health Index” value in the assay on HL-60 came out at 0.178.
For the compound `CS(=O)(=O)O.Cc1c(O)cccc1C(=O)N[C@@H](CSc1ccccc1)[C@H](O)CN1C[C@H]2CCCC[C@H]2C[C@H]1C(=O)NC(C)(C)C` [Nelfinavir], in the assay with Danio rerio embryo, the “BMC10 any morphological effect or mortality” value was > 100 µM. Also, in the assay with HL-60, the “Cell Health Index” value was found to be 0.453.
In the case of `COC(=O)c1cc(O)c(O)c(O)c1` [Methyl gallate], the “BMC10 any morphological effect or mortality” value with Danio rerio embryo was > 100 µM. Moreover, in the assay on HL-60, the “Cell Health Index” value was 0.351.
Regarding `O=c1c(-c2ccc(O)c(O)c2)coc2cc(O)ccc12` [3',4',7-Trihydroxyisoflavone], the “BMC10 any morphological effect or mortality” value in the assay on Danio rerio embryo is > 100 µM. Also, the “Cell Health Index” value in the assay on HL-60 is 0.478.
As to `Oc1cc(O)c2c(c1)O[C@@H](c1ccc(O)c(O)c1)[C@H](O)C2` [(-)-Catechin], in the assay on Danio rerio embryo, the “BMC10 any morphological effect or mortality” value is > 100 µM. Besides, the “Cell Health Index” value in the assay with HL-60 came to 0.201.
For the compound `CC1(C)[C@@H]2CC[C@@]1(C)C(=O)C2` [(1R)-(+)-Camphor], the “BMC10 any morphological effect or mortality” value with Danio rerio embryo was > 100 µM. For the same compound, in the assay on HL-60, the “Cell Health Index” value worked out at 0.135.
As for `CC(C)(C)[C@@H]1NC(=O)O[C@@H]2CCC[C@H]2OC/C=C/C(F)(F)c2nc3ccccc3nc2O[C@@H]2C[C@@H](C(=O)N[C@]3(C(=O)NS(=O)(=O)C4(C)CC4)C[C@H]3C(F)F)N(C2)C1=O` [Glecaprevir], in the assay with Danio rerio embryo, the “BMC10 any morphological effect or mortality” value was > 100 µM. For the same compound, in the assay on HL-60, the “Cell Health Index” value was found to be 0.369.
The like results for `CC(C)c1nc(CN(C)C(=O)N[C@H](C(=O)N[C@@H](Cc2ccccc2)C[C@H](O)[C@H](Cc2ccccc2)NC(=O)OCc2cncs2)C(C)C)cs1` [Ritonavir] were, in that order, > 100 µM and 0.532.
In the case of `CCc1cccc(CC)c1NC(=O)N1Cc2[nH]nc(NC(=O)c3ccc(N4CCN(C)CC4)cc3)c2C1`, the “BMC10 any morphological effect or mortality” value in the assay on Danio rerio embryo is > 100 µM. The “Cell Health Index” value in the assay on HL-60 was found to be 0.634.
Taken in the same sequence, the figures for `Nc1nc(=O)c2c(CCc3ccc(C(=O)N[C@@H](CCC(=O)[O-])C(=O)[O-])cc3)c[nH]c2[nH]1.O.O.O.O.O.O.O.[Na+].[Na+]` [Pemetrexed] were > 100 µM and 0.15.
The like results for `Cc1cccc(C)c1N(CC(=O)Nc1ccc(-c2ncon2)cc1)C(=O)C1CCS(=O)(=O)CC1` [Amenamevir] were, in that order, > 100 µM and 0.215.
Regarding `Oc1ccc(/C=C\c2cc(O)cc(O)c2)cc1` [Resveratrol], in the assay on Danio rerio embryo, the “BMC10 any morphological effect or mortality” value was > 100 µM. Further, the “Cell Health Index” value in the assay on HL-60 worked out at 0.416.
Consider `O=c1cc(-c2ccc(O)c(O)c2)oc2c([C@@H]3O[C@H](CO)[C@@H](O)[C@H](O)[C@H]3O)c(O)cc(O)c12` [Orientin], for which, in the assay on Danio rerio embryo, the “BMC10 any morphological effect or mortality” value was > 100 µM. Besides, in the assay on HL-60, the “Cell Health Index” value was determined as 0.337.
Take `CCOC(=O)C1=C[C@@H](OC(CC)CC)[C@H](NC(C)=O)[C@@H](N)C1.O=P(O)(O)O` [Oseltamivir]: the “BMC10 any morphological effect or mortality” value with Danio rerio embryo is > 100 µM. The “Cell Health Index” value with HL-60 was found to be 0.252.
As for `CC(C)OC(=O)[C@H](C)N[P@](=O)(CO[C@H](C)Cn1cnc2c(N)ncnc21)Oc1ccccc1` [GS-7340], the “BMC10 any morphological effect or mortality” value in the assay with Danio rerio embryo is > 100 µM. Also, the “Cell Health Index” value with HL-60 worked out at 0.202.
The like results for `NC(=O)c1nc(F)c[nH]c1=O` [Favipiravir] were, in that order, > 100 µM and 0.248.
As to `CC(C)=CCC[C@](C)(O[C@@H]1O[C@H](CO[C@@H]2O[C@H](CO)[C@@H](O)[C@H](O)[C@H]2O)[C@@H](O)[C@H](O)[C@H]1O)[C@H]1CC[C@]2(C)[C@@H]1[C@H](O)C[C@@H]1[C@@]3(C)CC[C@H](O[C@@H]4O[C@H](CO)[C@@H](O)[C@H](O)[C@H]4O[C@@H]4O[C@H](CO)[C@@H](O)[C@H](O)[C@H]4O)C(C)(C)[C@@H]3CC[C@]12C` [Ginsenoside Rb1], the “BMC10 any morphological effect or mortality” value in the assay on Danio rerio embryo was > 100 µM. Moreover, in the assay on HL-60, the “Cell Health Index” value turned out to be 0.145.
As to `COc1cc(C(=O)NCc2ccc(OCCN(C)C)cc2)cc(OC)c1OC.Cl` [Trimethobenzamide], the “BMC10 any morphological effect or mortality” value in the assay on Danio rerio embryo was > 100 µM. In addition, the “Cell Health Index” value in the assay on HL-60 amounted to 0.194.
Take `O=C1C=CC[C@@H]2[C@H]3CCCN4CCC[C@@H](CN12)[C@@H]34` [Sophocarpine]: in the assay with Danio rerio embryo, the “BMC10 any morphological effect or mortality” value was > 100 µM. In the assay on HL-60, the “Cell Health Index” value came to 0.164.
Take `CC(C)OC(=O)OCOP(=O)(CO[C@H](C)Cn1cnc2c(N)ncnc21)OCOC(=O)OC(C)C.O=C(O)/C=C/C(=O)O` [Tenofovir Disoproxil]: the “BMC10 any morphological effect or mortality” value in the assay on Danio rerio embryo was > 100 µM. Further, the “Cell Health Index” value with HL-60 was determined as 0.212.
With `CC(=O)Nc1nc(C)c(-c2ccc(Cl)c(S(=O)(=O)NCCO)c2)s1` [PIK-93], the “BMC10 any morphological effect or mortality” value with Danio rerio embryo is > 100 µM. For the same compound, in the assay with HL-60, the “Cell Health Index” value was determined as 0.267.
With `CC1=CC(=O)/C(=C/c2ccc(O)c(O)c2)O1` [Inotilone], the “BMC10 any morphological effect or mortality” value in the assay on Danio rerio embryo is > 100 µM. Moreover, in the assay with HL-60, the “Cell Health Index” value is 0.76.
Taken in the same sequence, the figures for `O=c1[nH]c(=O)n([C@@H]2O[C@H](CO)[C@@H](O)[C@@H]2F)cc1I` [Fialuridine] were > 100 µM and 0.209.
Taken in the same sequence, the figures for `CC(C)CN(C[C@@H](OP(=O)([O-])[O-])[C@H](Cc1ccccc1)NC(=O)O[C@H]1CCOC1)S(=O)(=O)c1ccc(N)cc1.[Ca+2]` [Fosamprenavir] were > 100 µM and 0.242.
Consider `CC(C)[C@H](NC(=O)c1ccc2ccccc2n1)C(=O)N[C@@H](CC(=O)O)C(=O)COc1c(F)cccc1F` [Q-VD-OPH], for which the “BMC10 any morphological effect or mortality” value in the assay on Danio rerio embryo was > 100 µM. Further, in the assay with HL-60, the “Cell Health Index” value amounted to 0.221.
Consider `COc1cnc(-n2cnc(C)n2)c2[nH]cc(C(=O)C(=O)N3CCN(C(=O)c4ccccc4)CC3)c12` [Temsavir], for which the “BMC10 any morphological effect or mortality” value in the assay with Danio rerio embryo was > 100 µM. Also, in the assay with HL-60, the “Cell Health Index” value stood at 0.146.
In the case of `CCCCCCCCCCCCCCCC(=O)NCCO` [Palmitoyl ethanolamide], the “BMC10 any morphological effect or mortality” value in the assay with Danio rerio embryo was > 100 µM. The “Cell Health Index” value with HL-60 was 0.283.
The like results for `c1cc(CN2CCCNCCNCCCNCC2)ccc1CN1CCCNCCNCCCNCC1` [Plerixafor] were, in that order, > 100 µM and 0.115.
The like results for `CCC(CC)[C@H](NC(C)=O)[C@@H]1[C@H](O)[C@@H](C(=O)O)C[C@H]1NC(=N)N` [Peramivir] were, in that order, > 100 µM and 0.202.
